According to ChEMBL document CHEMBL1629508, “Synthesis and structure-activity relationships of tyrosine-based inhibitors of autotaxin (ATX)” (Bioorg Med Chem Lett, 2010):

Assays:
Autotaxin [1] = target: T1, Autotaxin (Homo sapiens, UniProt Q13822); test: Inhibition of autotoxin assessed as choline production after 60 to 180 mins using lysophosphatidylcholine as a substrate by colorimetric method
Autotaxin [2] = target: T1, Autotaxin; test: Inhibition of autotoxin assessed as choline release from LPC using lysophosphatidylcholine as substrate

CCCCCCCCCCCCCCCC(=O)N[C@@H](Cc1ccc(OCc2cc(C)c(OC)c(C)c2)cc1)[C@@H](O)CP(=O)(O)O
Ki (Autotaxin [1]): 1.6 µM

CCCCCCCCCCCCCCCC(=O)N[C@@H](Cc1ccc(OCc2ncc(C)c(OC)c2C)cc1)[C@@H](O)CP(=O)(O)O
Ki (Autotaxin [1]): 1 µM

CCCCCCCCCCCCCCCC(=O)N[C@@H](Cc1ccc(OCc2ncc(C)c(OC)c2C)cc1)[C@H](O)CP(=O)(O)O
Ki (Autotaxin [1]): 3.9 µM

CCCCCCCCCCCCCCCC(=O)N[C@@H](Cc1ccc(OCc2ccccc2)cc1)[C@@H](O)CP(=O)(O)O
Ki (Autotaxin [1]): 27 µM

CCCCCCCCCCCCCCCC(=O)N[C@@H](Cc1ccc(OCc2ccccc2)cc1)[C@H](O)CP(=O)(O)O
Ki (Autotaxin [1]): 83 µM

CCCCCCCCCCCCCCCC(=O)N[C@@H](Cc1ccc(OCc2ccccn2)cc1)[C@@H](O)CP(=O)(O)O
Ki (Autotaxin [1]): 4.4 µM

CCCCCCCCCCCCCCCC(=O)N[C@@H](Cc1ccc(OCc2ccccn2)cc1)[C@H](O)CP(=O)(O)O
Ki (Autotaxin [1]): 11 µM

CCCCCCCCCCCCCCCC(=O)N[C@@H](Cc1ccc(OCc2cc(OC)ccn2)cc1)[C@@H](O)CP(=O)(O)O
Ki (Autotaxin [1]): 1.5 µM

CCCCCCCCCCCCCCCC(=O)N[C@@H](Cc1ccc(OCc2cc(OC)ccn2)cc1)[C@H](O)CP(=O)(O)O
Ki (Autotaxin [1]): 3.5 µM

CCCCCCCCCCCCCCCC(=O)N[C@@H](Cc1ccc(OCc2ncc(C)cc2C)cc1)[C@@H](O)CP(=O)(O)O
Ki (Autotaxin [1]): 3.9 µM

CCCCCCCCCCCCCCCC(=O)N[C@@H](Cc1ccc(OCc2ncc(C)cc2C)cc1)[C@H](O)CP(=O)(O)O
Ki (Autotaxin [1]): 399 µM

CCCCCCCCCCCCCCCC(=O)N[C@@H](Cc1ccc(OCc2ncc(C)c(OCC)c2C)cc1)[C@@H](O)CP(=O)(O)O
Ki (Autotaxin [1]): 4.7 µM

CCCCCCCCCCCCCCCC(=O)N[C@@H](Cc1ccc(OCc2ncc(C)c(OC(C)C)c2C)cc1)[C@H](O)CP(=O)(O)O
Ki (Autotaxin [1]): 11.1 µM

CCCCCCCCCCCCCCCC(=O)N[C@@H](Cc1ccc(OCc2ncc(C)c(OCC)c2C)cc1)[C@H](O)CP(=O)(O)O
Ki (Autotaxin [1]): 6.2 µM

CCCCCCCCCCCCCCCC(=O)N[C@@H](Cc1ccc(OCc2ncc(C)c(OC(C)C)c2C)cc1)[C@@H](O)CP(=O)(O)O
Ki (Autotaxin [1]): 8.8 µM

CCCCCCCCCCCCCCCC(=O)N[C@@H](Cc1ccc(OCc2cc(OCC(F)(F)F)ccn2)cc1)[C@@H](O)CP(=O)(O)O
Ki (Autotaxin [1]): 11.6 µM

CCCCCCCCCCCCCCCC(=O)N[C@@H](Cc1ccc(OCc2cc(OCC(F)(F)F)ccn2)cc1)[C@H](O)CP(=O)(O)O
Ki (Autotaxin [1]): 22.5 µM

CCCCCCCCCCCCCCCC(=O)N[C@@H](Cc1ccc(OCc2ccc(C)cc2C)cc1)[C@@H](O)CP(=O)(O)O
Ki (Autotaxin [1]): 1.8 µM

CCCCCCCCCCCCCCCC(=O)N[C@@H](Cc1ccc(OCc2ccc(C)cc2C)cc1)[C@H](O)CP(=O)(O)O
Ki (Autotaxin [1]): 4.8 µM

CCCCCCCCCCCCCCCC(=O)N[C@@H](Cc1ccc(OCc2ccc(Cl)cc2Cl)cc1)[C@@H](O)CP(=O)(O)O
Ki (Autotaxin [1]): 584 µM

CCCCCCCCCCCCCCCC(=O)N[C@@H](Cc1ccc(OCc2ccc(Cl)cc2Cl)cc1)[C@H](O)CP(=O)(O)O
Ki (Autotaxin [1]): 1060 µM

CCCCCCCCCCCCCCCC(=O)N[C@@H](Cc1ccc(OCc2cc(C)c(OC)c(C)c2)cc1)[C@H](O)CP(=O)(O)O
Ki (Autotaxin [1]): 5.3 µM

CCCCCCCCCCCCCCCC(=O)N[C@@H](Cc1ccc(OCc2cc(C)cc(C)c2)cc1)[C@@H](O)CP(=O)(O)O
Ki (Autotaxin [1]): 88.9 µM

CCCCCCCCCCCCCCCC(=O)N[C@@H](Cc1ccc(OCc2cc(C)cc(C)c2)cc1)[C@H](O)CP(=O)(O)O
Ki (Autotaxin [1]): 217 µM

CCCCCCCCCCCCCCCC(=O)N[C@@H](Cc1ccc(OCc2ccc(OC)c(C)c2)cc1)[C@@H](O)CP(=O)(O)O
Ki (Autotaxin [1]): 4.3 µM

CCCCCCCCCCCCCCCC(=O)N[C@@H](Cc1ccc(OCc2ccc(OC)c(C)c2)cc1)[C@H](O)CP(=O)(O)O
Ki (Autotaxin [1]): 26.5 µM

O=C1S/C(=C\c2cccc(B(O)O)c2)C(=O)N1Cc1ccc(F)cc1
Ki (Autotaxin [2]): 0.094 µM

O=C(O)c1cccc(/C=C2\SC(=O)N(Cc3ccc(F)cc3)C2=O)c1
Ki (Autotaxin [2]): 0.187 µM

CCCCCCCCCCCCCC(=O)Nc1ccc(CP(=O)(O)O)cc1
Ki (Autotaxin [2]): 0.367 µM

CCCCCCCCCCCCCCCCCC(=O)OC[C@@H](O)CC(Br)P(=O)(O)O (stereo not given in full)
Ki (Autotaxin [2]): 40.1 µM
